Data published in PubChem BioAssay (NCI).
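Results reflect a 48-hour exposure of cells in 96-well plates to compound at five concentrations. The concentration for full growth arrest is given as TGI.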

What was measured:
Experiment in all cases: DTP human tumour cell line panel, 48 h
KM12 colon = system: KM12 colon
TK-10 renal = system: TK-10 renal
HCC-2998 colon = system: HCC-2998 colon
MDA-MB-435 = system: MDA-MB-435
SF-268 CNS = system: SF-268 CNS
MCF7 breast = system: MCF7 breast
BT-549 breast = system: BT-549 breast
MALME-3M melanoma = system: MALME-3M melanoma
OVCAR-8 ovarian = system: OVCAR-8 ovarian
RXF 393 renal = system: RXF 393 renal

| SMILES | TGI (KM12 colon) | TGI (TK-10 renal) | TGI (HCC-2998 colon) | TGI (MDA-MB-435) | TGI (SF-268 CNS) | TGI (MCF7 breast) | TGI (BT-549 breast) | TGI (MALME-3M melanoma) | TGI (OVCAR-8 ovarian) | TGI (RXF 393 renal) |
| --- | --- | --- | --- | --- | --- | --- | --- | --- | --- | --- |
| CC1(C)CN=C(c2ccc3ccccc3c2O)N1 | > 100 µM | > 100 µM | > 100 µM | > 100 µM | > 100 µM | > 100 µM | > 100 µM | – | – | – |
| O/N=C1/CCCCC1NO (configuration not stated) | > 100 µM | > 100 µM | > 100 µM | > 100 µM | > 100 µM | > 100 µM | – | > 100 µM | > 100 µM | > 100 µM |
| N#Cc1nc(Cc2cccs2)oc1N | > 100 µM | > 100 µM | – | > 100 µM | > 100 µM | > 100 µM | – | – | > 100 µM | > 100 µM |
| CCSc1nn(-c2c3ccccc3nc3ccccc23)c(=S)s1 | > 100 µM | > 100 µM | > 100 µM | > 100 µM | > 100 µM | > 100 µM | > 100 µM | – | > 100 µM | > 100 µM |
| Nc1ncc(Cc2nn3c(COc4ccc(Cl)cc4)nnc3s2)s1 | > 100 µM | > 100 µM | > 100 µM | > 100 µM | > 100 µM | > 100 µM | – | > 100 µM | > 100 µM | > 100 µM |
| C=C1C[C@]23CC[C@@H]4C(CO)(CO)CC(=O)C[C@]4(C)[C@@H]2C(O)C[C@H]1C3 (some centres not stated) | > 100 µM | > 100 µM | > 100 µM | > 100 µM | > 100 µM | > 100 µM | > 100 µM | > 100 µM | > 100 µM | – |
| CC(=O)Nc1oc(C)nc1C#N | > 100 µM | > 100 µM | – | > 100 µM | > 100 µM | > 100 µM | – | – | > 100 µM | > 100 µM |
| Clc1cccc(Cl)c1C1ON=C(c2ccccc2)N1C12CC3CC(CC(C3)C1)C2 (configuration not stated) | 30.8 µM | > 100 µM | > 100 µM | > 100 µM | > 100 µM | > 100 µM | – | 47 µM | > 100 µM | > 100 µM |
| NCCCN1CCN(CCCNc2ccc3ncn4c5ccccc5c(=O)c2c34)CC1 | 13.1 µM | > 25 µM | 2.93 µM | > 25 µM | 6.04 µM | > 25 µM | – | 6.27 µM | 19.5 µM | – |
| Cn1cnc([N+](=O)[O-])c1Sc1nncc2[nH]cnc12 | > 100 µM | > 100 µM | > 100 µM | > 100 µM | – | > 100 µM | > 100 µM | > 100 µM | > 100 µM | – |
| C=C1C(=O)OC2C1CC1OC2C(C)CCC/C(C)=C\CCC1(C)O (configuration not stated) | 59 µM | – | 63.5 µM | – | 51.8 µM | 57.4 µM | – | 80.6 µM | 31.4 µM | 17.9 µM |
| COc1cccc(C2c3cc4c(cc3OC(N3CCOCC3)C2C)OCO4)c1 (configuration not stated) | – | – | – | – | 85.5 µM | 46.4 µM | 22.4 µM | > 100 µM | > 100 µM | – |
| CC1Oc2c(c(O)cc3oc(=O)cc(-c4ccccc4)c23)C(=O)C1C (configuration not stated) | – | > 100 µM | – | – | > 100 µM | – | – | > 100 µM | > 100 µM | – |
| Cc1cccc(/C=N/NC(=S)NC(C)(C)C)n1 | > 100 µM | > 100 µM | > 100 µM | > 100 µM | > 100 µM | > 100 µM | > 100 µM | > 100 µM | > 100 µM | – |
| NC(=S)NS(=O)(=O)c1ccc(Cl)cc1Cl | > 100 µM | > 100 µM | > 100 µM | > 100 µM | > 100 µM | – | > 100 µM | > 100 µM | > 100 µM | > 100 µM |
| COc1ccc(C2=C(N)c3ccccc3C2=O)cc1 | > 100 µM | > 100 µM | > 100 µM | > 100 µM | > 100 µM | > 100 µM | > 100 µM | > 100 µM | > 100 µM | – |
| O=C1C(=O)C(CCCO)(CCCO)CCCCCCCCC1(CCCO)CCCO | > 100 µM | > 100 µM | > 100 µM | > 100 µM | > 100 µM | > 100 µM | – | > 100 µM | > 100 µM | 68.8 µM |
| CN(CCc1ccccn1)C(=S)N/N=C/c1ccccn1 | 17.1 µM | 0.668 µM | 37.7 µM | 38.1 µM | > 100 µM | > 100 µM | – | 8.81 µM | – | 2.98 µM |
